Series [1] in a line: stability of the crystalline form (statement only, no method described). The format is physicochemical.
The nature of series [2]: hygroscopicity of the crystalline form (statement only, no method described). Particulars: solid form. The class given is physicochemical.

Experimental findings from patent US8309553B2, “Anhydrous crystal form of ovrepitant maleate” (Glaxo Group Limited, priority 2008, dated 2012) are described below.

As to `Cc1cc(F)ccc1[C@H]1C[C@@H](N2CCN3C(=O)CC[C@H]3C2)CCN1C(=O)N(C)[C@H](C)c1cc(C(F)(F)F)cc(C(F)(F)F)c1.O=C(O)/C=C\C(=O)O` [Form 1, (2R,4S)—N-{(1R)-1-[3,5-bis(trifluoromethyl)phenyl]ethyl}-2-(4-fluoro-2-methylphenyl)-N-methyl-4-[(8aS)-6-oxohexahydropyrrolo[1,2-a]pyrazin-2(1H)-yl]-1-piperidinecarboxamide maleate], the “thermodynamic stability relative to Form 2” value in series [1] (compared with Form 2 orvepitant maleate) is reported as “thermodynamically more stable”. Also, in series [1] (solid form), the “stability of the crystalline form” value was “particularly stable”. Besides, the hygroscopicity result in series [2] is given as “essentially non hygroscopic”.
